According to ChEMBL document CHEMBL3509549:

How the values were obtained:
[1] = Mean exposure of saquinavir mesylate estimated by Cmax following oral repeat dosing of 1000 mg Invirase Hard Gel Capsules capsules in healthy woman; type: ADME, organism-based; conditions: female, human, plasma
[2] = Mean exposure of saquinavir mesylate estimated by AUC(0-infinity) following oral repeat dosing of 1000 mg Invirase Film-coated tablet in healthy woman; type: ADME, organism-based; conditions: female, human, plasma, read-out: AUC(0-infinity)
[3] = Arithmetic mean of Cmax of saquinavir mesylate following oral repeat dosing of 1000 mg Invirase Film-coated tablet in healthy human; type: ADME, organism-based; conditions: both, plasma
[4] = Mean exposure of saquinavir mesylate estimated by Cmax following oral repeat dosing of 1000 mg Invirase Film-coated tablet in healthy woman; type: ADME, organism-based; conditions: female, human, plasma
[5] = Mean exposure of saquinavir mesylate estimated by AUC(0-infinity) following oral repeat dosing of 1000 mg Invirase Hard Gel Capsules capsules in healthy woman; type: ADME, organism-based; conditions: female, human, plasma, read-out: AUC(0-infinity)
[6] = clinical; conditions: both, human, plasma, po, 1000 mg
[7] = clinical; conditions: both, human, plasma, po, 1000 mg; remark: listed apart in the source
[8] = clinical; conditions: both, human, plasma, po, 1000 mg; remark: listed apart in the source
[9] = Arithmetic mean of AUC(0-infinity) of saquinavir mesylate following oral repeat dosing of 1000 mg Invirase Film-coated tablet in healthy human; type: ADME, organism-based; conditions: both, plasma, read-out: AUC(0-infinity)
[10] = Mean exposure of saquinavir mesylate estimated by AUC(0-infinity) following oral repeat dosing of 1000 mg Invirase Hard Gel Capsules capsules in healthy men; type: ADME, organism-based; conditions: male, human, plasma, read-out: AUC(0-infinity)
[11] = Mean exposure of saquinavir mesylate estimated by Cmax following oral repeat dosing of 1000 mg Invirase Film-coated tablet in healthy human; type: ADME, organism-based; conditions: both, plasma
[12] = Mean exposure of saquinavir mesylate estimated by AUC(0-infinity) following oral repeat dosing of 1000 mg Invirase Film-coated tablet in healthy men; type: ADME, organism-based; conditions: male, human, plasma, read-out: AUC(0-infinity)
[13] = Median Tmax of saquinavir mesylate following oral repeat dosing of 1000 mg Invirase Film-coated tablet in healthy human; type: ADME, organism-based; conditions: both, plasma, read-out: Median Tmax
[14] = Geometric mean of Cmax of saquinavir mesylate following oral repeat dosing of 1000 mg Invirase Film-coated tablet in healthy human; type: ADME, organism-based; conditions: both, plasma
[15] = Arithmetic mean of AUC(0-infinity) of saquinavir mesylate following oral repeat dosing of 1000 mg Invirase Hard Gel Capsules capsules in healthy human; type: ADME, organism-based; conditions: both, plasma, read-out: AUC(0-infinity)
[16] = Geometric mean of AUC(0-infinity) of saquinavir mesylate following oral repeat dosing of 1000 mg Invirase Film-coated tablet in healthy human; type: ADME, organism-based; conditions: both, plasma, read-out: AUC(0-infinity)
[17] = Maximum Tmax of saquinavir mesylate following oral repeat dosing of 1000 mg Invirase Hard Gel Capsules capsules in healthy human; type: ADME, organism-based; conditions: both, plasma, read-out: Maximum Tmax
[18] = Mean exposure of saquinavir mesylate estimated by Cmax following oral repeat dosing of 1000 mg Invirase Hard Gel Capsules capsules in healthy men; type: ADME, organism-based; conditions: male, human, plasma
[19] = Minimum Tmax of saquinavir mesylate following oral repeat dosing of 1000 mg Invirase Film-coated tablet in healthy human; type: ADME, organism-based; conditions: both, plasma, read-out: Minimum Tmax
[20] = Mean exposure of saquinavir mesylate estimated by Cmax following oral repeat dosing of 1000 mg Invirase Hard Gel Capsules capsules in healthy human; type: ADME, organism-based; conditions: both, plasma
[21] = Minimum Tmax of saquinavir mesylate following oral repeat dosing of 1000 mg Invirase Hard Gel Capsules capsules in healthy human; type: ADME, organism-based, Plasma; conditions: in vivo
[22] = Geometric mean of Cmax of saquinavir mesylate following oral repeat dosing of 1000 mg Invirase Hard Gel Capsules capsules in healthy human; type: ADME, organism-based; conditions: both, plasma
[23] = Median Tmax of saquinavir mesylate following oral repeat dosing of 1000 mg Invirase Hard Gel Capsules capsules in healthy human; type: ADME, organism-based; conditions: both, plasma, read-out: Median Tmax
[24] = Mean exposure of saquinavir mesylate estimated by Cmax following oral repeat dosing of 1000 mg Invirase Film-coated tablet in healthy men; type: ADME, organism-based; conditions: male, human, plasma
[25] = clinical; conditions: both, human, plasma, po, 1000 mg; remark: listed apart in the source
[26] = Arithmetic mean of Cmax of saquinavir mesylate following oral repeat dosing of 1000 mg Invirase Hard Gel Capsules capsules in healthy human; type: ADME, organism-based; conditions: both, plasma
[27] = Maximum Tmax of saquinavir mesylate following oral repeat dosing of 1000 mg Invirase Film-coated tablet in healthy human; type: ADME, organism-based; conditions: both, plasma, read-out: Maximum Tmax

In the case of `CC(C)(C)NC(=O)[C@@H]1C[C@@H]2CCCC[C@@H]2CN1C[C@@H](O)[C@H](Cc1ccccc1)NC(=O)[C@H](CC(N)=O)NC(=O)c1ccc2ccccc2n1`, the Cmax [1] is reported as 306 ng/mL, the AUC(0-inf) [2] is reported as 1480 ng·h/mL and the Cmax [3] is reported as 404 ng/mL. The Cmax [4] was 395 ng/mL, the AUC(0-inf) [5] was 1090 ng·h/mL and the half-life [6] was 7.73 h. For the same compound, the half-life [7] was 7.51 h, the half-life [8] was 7.89 h and the AUC(0-inf) [9] was 1510 ng·h/mL. The AUC(0-inf) [10] was 1040 ng·h/mL, the Cmax [11] was 332 ng/mL and the AUC(0-inf) [12] was 1030 ng·h/mL. For the same compound, the Tmax [13] was 3.88 h, the Cmax [14] was 332 ng/mL and the AUC(0-inf) [15] was 1190 ng·h/mL. The AUC(0-inf) [16] was 1240 ng·h/mL, the Tmax [17] was 10 h and the Cmax [18] was 265 ng/mL. The Tmax [19] was 1.02 h, the Cmax [20] was 285 ng/mL and the “Minimum Tmax” value [21] was 1 h. For the same compound, the Cmax [22] was 285 ng/mL, the Tmax [23] was 4.37 h and the Cmax [24] was 278 ng/mL. It also gave a half-life [25] of 8.29 h, a Cmax [26] of 348 ng/mL and a Tmax [27] of 6 h.
